{
  "source": "patent US10562903B2",
  "about": "“Bridged piperidine derivatives” (Hoffmann-La Roche Inc., priority 2015, dated 2020)",
  "data": [
    {"molecular_target": "γ-secretase (Homo sapiens, UniProt P49768)", "assay": "Cellular γ-secretase assay (inhibition of Aβ42 secretion, AlphaLisa)", "format": "cell-based", "details": "Human neuroglioma H4 cells overexpressing human APP695 Swedish double mutation (K595N/M596L); 24 hr compound incubation; secreted Aβ42 in supernatant", "protocol": "Human neuroglioma H4 cells overexpressing human APP695 with the Swedish double mutation (K595N/M596L) were plated at 30,000 cells/well/100 μl in 96-well plates in IMDM media containing 10% FCS, 0.2 mg/l Hygromycin B and incubated at 37° C., 5% CO2.\n3-4 hr post plating, compounds are a diluted in media and 50 μl is added as 1.5-fold concentrate to achieve the final concentration. Compound incubation is performed for 24 hr. Final doses typically range from 4 μM down to 0.0013 μM in half-log steps resulting in a eight point dose response curve.\nAppropriate controls using vehicle only and reference compound were applied to this assay. The final concentration of Me2SO was 0.4%.\nAfter incubation at 37° C., 5% CO2, the supernatant was subjected to quantification of secreted Aβ42 by the means of an AlphaLisa assay kit (Human Amyloid beta 1-42 Kit: Cat # AL203C, Perkin Elmer). 20 μl of the cell culture supernatant was transferred to an assay plate. Then 10 μl of a mixture of the AlphaLisa coupled capture antibody and the biotinylated detection antibody was added and incubated for 3 hours at room temperature while softly shaking the assay plate. After a further addition of 20 μl of the Donor beads the assay plate was incubated for 30 min at room temperature and constant shaking without exposure to direct light. The assay plate was then read on a Paradigm AlphaLisa Reader using the build-in program with excitation at 680 nm and emission at […].\nThe measured signals were then used to calculate IC50 values for inhibition of Aβ42 secretion by nonlinear regression fit analysis using XLfit 5.3 software (IDBS).", "units": {"EC50": "µM"}, "values": [
      {"molecule": "Cc1nsc(N2CC3CCC(C2)C3Nc2nc3c(OC(C)C(F)(F)F)cccn3n2)n1", "note": "(single isomer, unassigned) [Example 6, N-[(8 endo)-3-(3-methyl-1,2,4-thiadiazol-5-yl)-3-azabicyclo[3.2.1]octan-8-yl]-8-[(2S or 2R)-1,1,1-trifluoropropan-2-yl]oxy-[1,2,4]triazolo[1,5-a]pyridin-2-amine]", "EC50": 0.016},
      {"molecule": "Cc1cc(N2CC3CCC(C2)C3Nc2nc3c(O[C@H](C)C(F)(F)F)nccn3n2)sn1", "note": "(single isomer, unassigned) [Example 35, N-[(8 endo)-3-(3-methylisothiazol-5-yl)-3-azabicyclo[3.2.1]octan-8-yl]-8-((2R or 2S)-1,1,1-trifluoropropan-2-yl)oxy)-[1,2,4]triazolo[1,5-a]pyrazin-2-amine]", "EC50": 0.006},
      {"molecule": "Cc1nsc(N2CC3CCC(C2)C3Nc2nc3c(OC(C)C(F)(F)F)cccn3n2)n1", "note": "(single isomer, unassigned) [Example 5, N-[(8-endo)-3-(3-methyl-1,2,4-thiadiazol-5-yl)-3-azabicyclo[3.2.1]octan-8-yl]-8-[(2R or 2S)-1,1,1-trifluoropropan-2-yl]oxy-[1,2,4]triazolo[1,5-a]pyridin-2-amine]", "EC50": 0.027},
      {"molecule": "Cc1noc(N2CC3CCC(C2)C3Nc2nc3c(O[C@H](C)C(F)(F)F)ccc(C(F)(F)F)n3n2)n1", "note": "(single isomer, unassigned) [Example 81, N-[(8-endo)-3-(3-methyl-1,2,4-oxadiazol-5-yl)-3-azabicyclo[3.2.1]octan-8-yl]-5-(trifluoromethyl)-8-[(1R or 1S)-2,2,2-trifluoro-1-methyl-ethoxy]-[1,2,4]triazolo[1,5-a]pyridin-2-amine]", "EC50": 0.043},
      {"molecule": "N[(8 endo)-3-(6-methylpyrimidin-4-yl)-3-azabicyclo[3.2.1]octan-8-yl]-8-(2,2,3,3,3-pentafluoropropoxy)-[1,2,4]triazolo[1,5-a]pyridin-2-amine [Example 54]", "EC50": 0.014},
      {"molecule": "Cc1cc(N2CC3CCC(C2)C3Nc2nc3c(O[C@@H](C)C(F)(F)F)nccn3n2)sn1", "note": "(single isomer, unassigned) [Example 36, N-[(8 endo)-3-(3-methylisothiazol-5-yl)-3-azabicyclo[3.2.1]octan-8-yl]-8-((2S or 2R)-1,1,1-trifluoropropan-2-yl)oxy)-[1,2,4]triazolo[1,5-a]pyrazin-2-amine]", "EC50": 0.006},
      {"molecule": "Cc1cc(N2C[C@H]3CC[C@@H](C2)[C@H]3Nc2nc3c(OC(C)C(F)(F)F)cccn3n2)on1", "note": "(single isomer, unassigned) [Example 43, N-[(8 endo)-3-(3-methyl-1,2-oxazol-5-yl)-3-azabicyclo[3.2.1]octan-8-yl]-8-[(2R or 2S)-1,1,1-trifluoropropan-2-yl]oxy-[1,2,4]triazolo[1,5-a]pyridin-2-amine]", "EC50": 0.027}
    ]}
  ]
}
